Literature values as cited in patent US20200132604A1, “METHODS OF DETERMINING PROTEIN STRUCTURE USING TWO-PHOTON FLUORESCENCE MEASUREMENTS” (Biodesy, Inc., priority 2017, published 2020).

Legend:
[1] = tested on: human IgG-Fc; conditions: Sugita, et al. (2013)
[2] = molecular target: monomeric forms of avidin or streptavidin; conditions: read-out: biotin-binding affinity

Compound	affinity [1]	Kd [2]
NARKFYKG	6.5e+06 M⁻¹	
NKFRGKYK	8.9e+06 M⁻¹	
O=C(O)CCCC[C@@H]1SC[C@@H]2NC(=O)N[C@@H]21 [biotin]		~0.01 µM
